We go through 3 sequences from US7833967B2, “Synthetic antimicrobial polypeptides” (priority 2003, dated 2010).

Read-outs that look alike come from different tables or passages of the source. Ends that are not written are not given here.

The data set relates to human red blood cells (hRBC). Type of data set: cell-based. Conditions: red cells of human. The procedure:
The ability of the antimicrobial peptides to lyse human red blood cells (hRBC) was analyzed. The Red Blood Cell Test assay provides a simple test system that assesses the membranolytic activity of test materials. It is suitable as a screening assay for hemolytic properties. Hemoglobin release is a useful endpoint of cell membrane integrity. Released hemoglobin is detected by measuring absorbance at 540 nm. Normally, the concentration resulting in 50% hemolysis relative to a totally lysed sample (HL50) would be calculated; however due to the low hemolytic activity of the tested peptides, this was not done in this Example. An 8% RBC suspension (12 days old) was used in the present test setup.
Since the peptides were dissolved in 0.01% acetic acid, vehicle control of the 0.01% acetic acid was included. PBS with 25%, 10%, and 5% 0.01% acetic acid was included on both plates.
To verify that a dose/response effect exists, the hemolytic activity of SDS was also tested.

In the case of “RRRPPRLPRPFPVRPPPRFPRPFPLRP [SEQ ID NO: 239]”, the “Hemolysis (%)” value reads like this: (47 micrograms/ml) 19%; (94 micrograms/ml) 16%; (188 micrograms/ml) 16%; (375 micrograms/ml) 18%.
As to “RRRPRPVPRPFPRPVPRPLPRPFPRPF [SEQ ID NO: 61]”, the “Hemolysis (%)” value (47 micrograms/ml) was determined as 16%, the “Hemolysis (%)” value (94 micrograms/ml) stood at 16%, the “Hemolysis (%)” value (188 micrograms/ml) is 16% and the “Hemolysis (%)” value (375 micrograms/ml) is recorded as 17%.
For “RRRPFRPPFRPPFRPPVRPPVRPPFRP [SEQ ID NO: 79]”, the “Hemolysis (%)” value runs as follows: (47 micrograms/ml) 16%; (94 micrograms/ml) 16%; (188 micrograms/ml) 17%; (375 micrograms/ml) 17%.
